Reference: patent US11654198B2, “Application of combination of polyethylene glycol and local anesthetic in non-narcotic analgesia” (JENKEM TECHNOLOGY CO., LTD. (TIANJIN), priority 2016, dated 2023)

Assays:
[1] = PEG-bupivacaine conjugate hydrolysis drug release in pH 7.4 PBS buffer (Example 29); type: physicochemical; settings: 37° C., about 2 mg/mL
Experimental: Preparation of isotonic phosphate buffer (0.01 mol/L, pH 7.4, PBS): 8.0 g of NaCl, 0.2 g of KH2PO4, 2.9 g of Na2HPO4.12H2O and 0.2 g of KCl are added sequentially to a quantitative container, and an appropriate amount of distilled water is added to dissolve, and then the volume is adjusted to 1000 mL and the obtained buffer is stored in a refrigerator at 4° C. for use.
Hydrolysis drug release for the PEG-bupivacaine conjugate: PEG-bupivacaine products (bupivacaine conjugate 6, prepared in Example 9 of the present invention; bupivacaine conjugate 10, prepared in Example 16 of the present invention) are dissolved in PBS buffer at about 2 mg/mL and placed in a water-bathing constant temperature vibrator at 37° C. Samples are taken at 0 h, 6 h, 12 h, 24 h, 48 h, 72 h, 96 h, 120 h and 144 h, and the content of free bupivacaine is determined by HPLC.

[2] = test system: experimental animals; assay: Duration of non-anesthetic analgesic effect (statement in background); type: in vivo; settings: single dose
[3] = test system: SD rats; assay: Sensory block, hot plate paw withdrawal time, bupivacaine minimum/maximum analgesic dose test (Example 28); type: in vivo, rat
Description: (§1) 1.3 Test substance: bupivacaine injection, diluted with physiological saline to the target concentration; the reference substance is physiological saline.
(§2) After the animals are anesthetized by intraperitoneal injection of 10% chloral hydrate solution, the sciatic nerve is exposed to the biceps and gluteus maximus joints of the hind limbs through surgery, and silicone flexible catheters of the same length (7 cm) are placed around the sciatic nerve. the other ends of the catheters are subcutaneously embedded in the back of the rat, and then sutured and fixed, and 0.2 mL of an antibiotic solution (5,000 U/ml penicillin G) is injected for anti-inflammatory.
After 2-3 days of catheterization, the SD rats with the body weight of 230-250 g and into which catheters are embedded are screened before the experiment by a hot plate method. The hot plate is heated to (56±1)° C., one of the hind paws of the rat is placed on the hot plate, and the other hind paw is placed in the laboratory room temperature condition, and the tested paw withdrawal time is observed and recorded. The average value of three times measured is recorded as a basic pain threshold.
(§3) Twenty-four qualified rats (animals with no dyskinesia and pain threshold change after catheterization) are randomly divided into 6 groups, 4 rats in each group, the first group is a control group, the experimental animals are administered with normal saline, and the other groups are administered with different doses of bupivacaine injection. Each group is injected with a corresponding drug through the catheter around the sciatic nerve.
The sensory block of the rats is examined by a hot plate method. The hot plate is heated to (56±1)° C., one of the hind paws of the rat is placed on the hot plate, and the other hind paw is placed at room temperature in the laboratory, the tested paw withdrawal time is observed and recorded. The average value of two to three times is recorded as a pain threshold. The paw withdrawal time of the hot plate method is recorded. In order to avoid the damage of the experimental animal body, if the rat has not withdrawal paw in the hot plate experiment for more than 15 s, the rat should be removed from the hot plate, and the experimental result is recorded as 15 s. The time point for determining the paw withdrawal time of the hot plate is before administration, and 5 minutes, 10 minutes, 30 minutes, 1 hour, and 2 hours after administration.

[4] = test system: SD rats; assay: Motor block four-level score, bupivacaine dose test (Example 28); type: in vivo, rat; parameters: key to motor function score: 1 = normal movement, 4 = complete loss of paw function
Description: as §1, §2, §3
The exercise condition of each group of rats is evaluated by a motor block four-level scoring method. The scoring criteria are: paws can be dorsiflexed, stretched, valgus and other normal exercises, scored by 1 point; paws can be dorsiflexed, bendable or after the adduction, although the paws can be stretched, the stretching ability is weakened, scored by 2 points; the paws can perform dorsiflexion, but no longer has the ability to stretch, scored by 3 points; the paws completely lose the ability of dorsiflexion, curling and stretching, and the rats produce a gait defect, scored by 4 points. The time point for measuring the motor block score is before administration, and 5 min, 10 min, 30 min, 1 h, and 2 h after administration.

[5] = group 2, 3 mg/kg (0.66 mg/rat) trans-catheter, 0 min (before administration)
[6] = group 2, 3 mg/kg (0.66 mg/rat) trans-catheter, 5 min
[7] = group 2, 3 mg/kg (0.66 mg/rat) trans-catheter, 10 min
[8] = group 2, 3 mg/kg (0.66 mg/rat) trans-catheter, 30 min
[9] = group 2, 3 mg/kg (0.66 mg/rat) trans-catheter, 60 min
[10] = group 2, 3 mg/kg (0.66 mg/rat) trans-catheter, 120 min
[11] = group 3, 1 mg/kg (0.22 mg/rat) trans-catheter, 0 min (before administration)
[12] = group 3, 1 mg/kg (0.22 mg/rat) trans-catheter, 5 min
[13] = group 3, 1 mg/kg (0.22 mg/rat) trans-catheter, 10 min
[14] = group 3, 1 mg/kg (0.22 mg/rat) trans-catheter, 30 min
[15] = group 3, 1 mg/kg (0.22 mg/rat) trans-catheter, 60 min
[16] = group 3, 1 mg/kg (0.22 mg/rat) trans-catheter, 120 min
[17] = group 4, 0.3 mg/kg (0.066 mg/rat) trans-catheter, 0 min (before administration)
[18] = group 4, 0.3 mg/kg (0.066 mg/rat) trans-catheter, 5 min
[19] = group 4, 0.3 mg/kg (0.066 mg/rat) trans-catheter, 10 min
[20] = group 4, 0.3 mg/kg (0.066 mg/rat) trans-catheter, 30 min
[21] = group 4, 0.3 mg/kg (0.066 mg/rat) trans-catheter, 60 min
[22] = group 4, 0.3 mg/kg (0.066 mg/rat) trans-catheter, 120 min
[23] = group 5, 0.1 mg/kg (0.022 mg/rat) trans-catheter, 0 min (before administration)
[24] = group 5, 0.1 mg/kg (0.022 mg/rat) trans-catheter, 5 min
[25] = group 5, 0.1 mg/kg (0.022 mg/rat) trans-catheter, 10 min
[26] = group 5, 0.1 mg/kg (0.022 mg/rat) trans-catheter, 30 min
[27] = group 5, 0.1 mg/kg (0.022 mg/rat) trans-catheter, 60 min
[28] = group 5, 0.1 mg/kg (0.022 mg/rat) trans-catheter, 120 min
[29] = group 6, 0.03 mg/kg (0.0066 mg/rat) trans-catheter, 0 min (before administration)
[30] = group 6, 0.03 mg/kg (0.0066 mg/rat) trans-catheter, 5 min
[31] = group 6, 0.03 mg/kg (0.0066 mg/rat) trans-catheter, 10 min
[32] = group 6, 0.03 mg/kg (0.0066 mg/rat) trans-catheter, 30 min
[33] = group 6, 0.03 mg/kg (0.0066 mg/rat) trans-catheter, 60 min
[34] = group 6, 0.03 mg/kg (0.0066 mg/rat) trans-catheter, 120 min

Work on “8-Arm-PEG-Bupivacaine, 20K [bupivacaine conjugate 10]” yielded a PEG-bupivacaine hydrolysis rate ([1]; 0 h) of 0.43%, a PEG-bupivacaine hydrolysis rate ([1]; 6 h) of 15.03% and a PEG-bupivacaine hydrolysis rate ([1]; 12 h) of 25.19%. It also gave a PEG-bupivacaine hydrolysis rate ([1]; 24 h) of 40.37%, a PEG-bupivacaine hydrolysis rate ([1]; 48 h) of 61.72% and a PEG-bupivacaine hydrolysis rate ([1]; 72 h) of 76.25%. The PEG-bupivacaine hydrolysis rate ([1]; 96 h) was 87.28%, the PEG-bupivacaine hydrolysis rate ([1]; 120 h) was 92.76% and the PEG-bupivacaine hydrolysis rate ([1]; 144 h) was 96.13%.
With `CCCCN1CCCCC1C(=O)Nc1c(C)cccc1C` (stereo not drawn) [bupivacaine] the “time the non-anesthetic analgesic effect is maintained” value [2] was “at most 1 hour”, the “hot plate paw withdrawal time” value [3, 5] was 3.26 ± 0.88 s and the “hot plate paw withdrawal time” value [3, 6] was 6.32 ± 2.29 s. The “hot plate paw withdrawal time” value [3, 7] was 7.7 ± 3.88 s, the “hot plate paw withdrawal time” value [3, 8] was 7.85 ± 3.36 s and the “hot plate paw withdrawal time” value [3, 9] was 5.91 ± 1.9 s. The “hot plate paw withdrawal time” value [3, 10] was 4.26 ± 1.42 s, the “hot plate paw withdrawal time” value [3, 11] was 2.75 ± 0.74 s and the “hot plate paw withdrawal time” value [3, 12] was 5.17 ± 5.41 s. The “hot plate paw withdrawal time” value [3, 13] was 7.13 ± 5.43 s, the “hot plate paw withdrawal time” value [3, 14] was 7.13 ± 4.01 s and the “hot plate paw withdrawal time” value [3, 15] was 3.24 ± 0.85 s. The “hot plate paw withdrawal time” value [3, 16] was 2.13 ± 0.8 s, the “hot plate paw withdrawal time” value [3, 17] was 3.42 ± 0.87 s and the “hot plate paw withdrawal time” value [3, 18] was 6.08 ± 1.68 s. For the same compound, the “hot plate paw withdrawal time” value [3, 19] was 7.11 ± 2.55 s, the “hot plate paw withdrawal time” value [3, 20] was 7.09 ± 1.45 s and the “hot plate paw withdrawal time” value [3, 21] was 3.62 ± 1.25 s. For the same compound, the “hot plate paw withdrawal time” value [3, 22] was 3.76 ± 0.69 s, the “hot plate paw withdrawal time” value [3, 23] was 3.08 ± 0.61 s and the “hot plate paw withdrawal time” value [3, 24] was 4.41 ± 3.24 s. For the same compound, the “hot plate paw withdrawal time” value [3, 25] was 4.22 ± 2.45 s, the “hot plate paw withdrawal time” value [3, 26] was 3.59 ± 1.89 s and the “hot plate paw withdrawal time” value [3, 27] was 2.63 ± 0.41 s. The “hot plate paw withdrawal time” value [3, 28] was 2.96 ± 1.38 s, the “hot plate paw withdrawal time” value [3, 29] was 3.06 ± 1.1 s and the “hot plate paw withdrawal time” value [3, 30] was 3.36 ± 0.91 s. For the same compound, the “hot plate paw withdrawal time” value [3, 31] was 2.67 ± 0.6 s, the “hot plate paw withdrawal time” value [3, 32] was 3.11 ± 1.22 s and the “hot plate paw withdrawal time” value [3, 33] was 2.66 ± 0.53 s. For the same compound, the “hot plate paw withdrawal time” value [3, 34] was 3.09 ± 0.82 s, the “motor block effect (summary)” value ([4]; 3 mg/kg (0.66 mg/rat) and 1 mg/kg (0.22 mg/rat)) was “motor block effect” and the “motor nerve block effect (summary)” value ([4]; 0.3, 0.1, 0.03 mg/kg (ie, 0.066, 0.022, 0.0066 mg/rat)) was “no motor nerve block effect is observed”. The motor function score [4, 5] was 1 ± 0, the motor function score [4, 6] was 1 ± 0 and the motor function score [4, 7] was 1.75 ± 0.5. It also gave a motor function score [4, 8] of 1.75 ± 0.5, a motor function score [4, 9] of 1.75 ± 0.5 and a motor function score [4, 10] of 1 ± 0. For the same compound, the motor function score [4, 11] was 1 ± 0, the motor function score [4, 12] was 1.5 ± 0.58 and the motor function score [4, 13] was 1.5 ± 0.58. For the same compound, the motor function score [4, 14] was 1.25 ± 0.5, the motor function score [4, 15] was 1 ± 0 and the motor function score [4, 16] was 1 ± 0. For the same compound, the motor function score [4, 17] was 1 ± 0, the motor function score [4, 18] was 1 ± 0 and the motor function score [4, 19] was 1 ± 0. For the same compound, the motor function score [4, 20] was 1 ± 0, the motor function score [4, 21] was 1 ± 0 and the motor function score [4, 22] was 1 ± 0. For the same compound, the motor function score [4, 23] was 1 ± 0, the motor function score [4, 24] was 1 ± 0 and the motor function score [4, 25] was 1 ± 0. For the same compound, the motor function score [4, 26] was 1 ± 0, the motor function score [4, 27] was 1 ± 0 and the motor function score [4, 28] was 1 ± 0. The motor function score [4, 29] was 1 ± 0, the motor function score [4, 30] was 1 ± 0 and the motor function score [4, 31] was 1 ± 0. It also gave a motor function score [4, 32] of 1 ± 0, a motor function score [4, 33] of 1 ± 0 and a motor function score [4, 34] of 1 ± 0.
